Source: patent US8299070B2, “Indole compounds and pharmaceutical use thereof” (Japan Tobacco Inc., priority 2009, dated 2012)

These molecules were tested against T1, hITK enzyme (FLAG-tagged full-length hITK) (Homo sapiens, UniProt Q08881) (assay: ITK inhibitory activity (HTRF kinase assay, biotinylated GST-SLP76 substrate)). Conditions: IC50 calculated from the 2 test compound concentrations sandwiching 50% ITK inhibitory rate.
T1 construct: strongly expressing FLAG-tagged full-length hITK in Sf9 cells; FLAG; made in house; host or cells: Sf9 insect cells (ITK); Escherichia coli (GST-SLP76 substrate)
T1 sequence (Q08881 1-620): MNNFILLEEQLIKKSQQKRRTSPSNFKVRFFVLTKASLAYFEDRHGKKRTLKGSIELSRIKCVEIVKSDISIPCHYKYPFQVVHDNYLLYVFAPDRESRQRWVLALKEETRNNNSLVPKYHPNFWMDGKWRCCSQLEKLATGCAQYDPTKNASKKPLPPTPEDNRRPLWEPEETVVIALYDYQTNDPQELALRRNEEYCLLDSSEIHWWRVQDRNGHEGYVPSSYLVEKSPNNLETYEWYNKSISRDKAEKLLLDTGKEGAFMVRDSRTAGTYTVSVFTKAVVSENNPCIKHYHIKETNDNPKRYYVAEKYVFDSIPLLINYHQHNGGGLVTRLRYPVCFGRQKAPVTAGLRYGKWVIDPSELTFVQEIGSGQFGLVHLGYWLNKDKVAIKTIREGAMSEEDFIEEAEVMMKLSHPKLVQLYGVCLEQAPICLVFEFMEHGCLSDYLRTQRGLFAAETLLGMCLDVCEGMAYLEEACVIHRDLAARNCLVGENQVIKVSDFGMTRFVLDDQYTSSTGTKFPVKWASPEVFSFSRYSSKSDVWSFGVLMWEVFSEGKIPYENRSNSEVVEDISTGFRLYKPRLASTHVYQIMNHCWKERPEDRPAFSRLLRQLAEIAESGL
Type: biochemical
Protocol: (1) Preparation of hITK Enzyme
hITK enzyme was prepared by strongly expressing FLAG-tagged full-length hITK in Sf9 cells, and purifying same by anti-FLAG antibody column.
(2) Preparation of biotinylated GST-SLP76
Biotinylated GST-SLP76 was prepared by strongly expressing GST-tagged SLP76 (aa95-175) in Escherichia coli, purifying same by glutathion sepharose column and biotinylating same.
(3) Preparation of Solution
(i) buffer for dilution: 20 mmol/L 3-(N-morpholino)propanesulfonic acid (pH 7.0) (DOJINDO LABORATORIES), 10 mmol/L magnesium chloride (Sigma-Aldrich Corporation), 1 mmol/L dithiothreitol (Nacalai Tesque, Inc.), 0.1% gelatin (Sigma-Aldrich Corporation)
(ii) substrate solution: 0.2 μg/mL biotinylated GST-SLP76, 100 μmol/L ATP (Sigma-Aldrich Corporation), prepared with buffer for dilution
(iii) test compound solution: test compound, 50% dimethyl sulfoxide (DMSO), prepared with buffer for dilution
(iv) enzyme solution: 50 ng/mL hITK enzyme, prepared with buffer for dilution
(v) control solution: solution after removal of test compound from the mixture of the above-mentioned (i), (ii) and (iii)
(vi) blank solution: solution after removal of ATP from the mixture of the above-mentioned (i), (ii) and (iii)
(vii) detection buffer: 0.1 μg/mL Anti-Phosphotyrosine (PT66)-Cryptate (Cisbio), 2.5 μg/mL streptavidin-binding XL665 (Cisbio), 50 mmol/L 4-(2-hydroxyethyl)-1-piperazineethanesulfonic acid (pH 7.4) (Nacalai Tesque, Inc.), 30 mmol/L EDTA (NipponGene), 0.1% TritonX (Sigma-Aldrich Corporation), 200 mmol/L potassium fluoride (Wako Pure Chemical Industries, Ltd.), 0.05% bovine serum albumin (Sigma-Aldrich Corporation) (4) Measurement of ITK Inhibitory Activity
A substrate solution (25 μL/well), a test compound solution (5 μL/well) and an enzyme solution (20 μL/well) were added into 96 well half-area white plate (plate, Corning Incorporated 3642) to start a kinase reaction. The plate was stood still at room temperature for 10 min. Then, a detection buffer (50 μL/well) was added to the plate. After 2 hr from the addition of the detection buffer, fluorescence intensity at 620 nm (excited at 337 nm), and fluorescence intensity at 665 nm ([…]) were measured by a fluorescence microplate reader.
The Ratio (fluorescence intensity at 665 nm/fluorescence intensity at 620 nm×10000) of each test compound was calculated from the measured fluorescence intensity. Simultaneously, the measurement was performed using a blank solution and a control solution, and % of control value of each test compound was calculated from the following formula. % of control=(Ratio of test compound−Ratio of blank)/(Ratio of control−Ratio of blank)×100 ITK inhibitory rate (%)=100−(% of control)
The IC50 value was calculated from the test compound concentrations at 2 points sandwiching 50% ITK inhibitory rate.
In the test for the compounds of Examples 380 and 381, the ATP concentration of the substrate solutions was 6 μmol/L.
Molecule CN(C(=O)C1CCOCC1)c1ccc2[nH]c(-c3n[nH]c4c3CCC(C)(C)C4)cc2c1 [Example 341] has an IC50 of 333 nM.
CCN(C(=O)CN1C[C@H](C)OCC1=O)c1ccc2cc(-c3n[nH]c4c3CCC(C)(C)C4)[nH]c2c1 [Example 279] was tested, and the IC50 was < 1 nM.
CN(C(=O)C(=O)c1ccccc1)c1ccc2cc(-c3n[nH]c4c3CCC(C)(C)C4)[nH]c2c1 [Example 57] was tested, and the IC50 was 17 nM.
Work on C[C@@H](C(=O)Nc1ccc2cc(-c3n[nH]c4c3CCC(C)(C)C4)[nH]c2c1)N1CCOCC1 [Example 375] yielded an IC50 of 110 nM.
CCC(=O)N(C)c1ccc2cc(-c3n[nH]c4c3CC(O)C(C)(C)C4)[nH]c2c1 (stereo not drawn) [Example 373] showed an IC50 of 8 nM.
Work on CC1(C)CCc2c(-c3cc4ccc(N(CCO)C(=O)CC5CCCCC5)cc4[nH]3)n[nH]c2C1 [Example 235] yielded an IC50 of 8 nM.
CN(C(=O)CN1CCOC1=O)c1ccc2cc(-c3n[nH]c4c3CCC(C)(C)C4)[nH]c2c1 [Example 154] gave an IC50 of 2 nM.
In the case of CC[C@@H](C(=O)N(C)c1ccc2cc(-c3n[nH]c4c3CCC(C)(C)C4)[nH]c2c1)N1CCOCC1 [Example 190], the IC50 is reported as 4 nM.
Work on CO[C@H]1CC[C@H](C(=O)N(CCO)c2ccc3cc(-c4n[nH]c5c4CCC(C)(C)C5)[nH]c3c2)CC1 [Example 233] yielded an IC50 of 10 nM.
For COC1CCCC(C(=O)N(C)c2ccc3cc(-c4n[nH]c5c4CCC(C)(C)C5)[nH]c3c2)C1 (stereo not drawn) [Example 99], the IC50 was 26 nM.
COC(C)C(=O)N(C)c1ccc2cc(-c3n[nH]c4c3CCC(C)(C)C4)[nH]c2c1 (stereo not drawn) [Example 41] was tested, and the IC50 was 4 nM.
Work on CCN(C(=O)CC1CCOCC1)c1ccc2cc(-c3n[nH]c4c3CCC(C)(C)C4)[nH]c2c1 [Example 268] yielded an IC50 of 5 nM.
Work on CC(=O)Nc1ccc2cc(-c3n[nH]c4c3CCC(C)(C)C4)[nH]c2c1 [Example 374] yielded an IC50 of 130 nM.
For CN(C(=O)[C@H]1CCCO1)c1ccc2cc(-c3n[nH]c4c3CCC(C)(C)C4)[nH]c2c1 [Example 140], the IC50 was 2 nM.
With CN(C(=O)CC1CCCC1)c1ccc2cc(-c3n[nH]c4c3CCC(C)(C)C4)[nH]c2c1 [Example 92] the IC50 was 10 nM.
Molecule COCCN(C(=O)CC1CCC(OC)CC1)c1ccc2cc(-c3n[nH]c4c3CCC(C)(C)C4)[nH]c2c1 (stereo not drawn) [Example 274] has an IC50 of 9 nM.
COCC(O)C(=O)N(C)c1ccc2cc(-c3n[nH]c4c3CCC(C)(C)C4)[nH]c2c1 (stereo not drawn) [Example 53] gave an IC50 of 8 nM.
In the case of CN(C(=O)CN1CCC(O)CC1)c1ccc2cc(-c3n[nH]c4c3CCC(C)(C)C4)[nH]c2c1 [Example 107], the IC50 is reported as 10 nM.
CN1CCC(C(=O)N(C)c2ccc3cc(-c4n[nH]c5c4CCC(C)(C)C5)[nH]c3c2)CC1 [Example 65] was tested, and the IC50 was 55 nM.
For CN(C(=O)COc1ccncc1)c1ccc2cc(-c3n[nH]c4c3CCC(C)(C)C4)[nH]c2c1 [Example 73], the IC50 was < 3 nM.
With CCN(C(=O)CN1CCCCC1=O)c1ccc2cc(-c3n[nH]c4c3CCC(C)(C)C4)[nH]c2c1 [Example 289] the IC50 was < 1 nM.
For COC1CCN(CC(=O)N(C)c2ccc3cc(-c4n[nH]c5c4CCC(C)(C)C5)[nH]c3c2)CC1 [Example 81], the IC50 was 8 nM.
For CC(C(=O)N(C)c1ccc2cc(-c3n[nH]c4c3CCC(C)(C)C4)[nH]c2c1)N1CCOCC1=O (stereo not drawn) [Example 147], the IC50 was 8 nM.
In the case of CN(C(=O)COc1ccccc1)c1ccc2cc(-c3n[nH]c4c3CCC(C)(C)C4)[nH]c2c1 [Example 45], the IC50 is reported as < 3 nM.
For CC1COCCN1C(C)C(=O)N(C)c1ccc2cc(-c3n[nH]c4c3CCC(C)(C)C4)[nH]c2c1 (stereo not drawn) [Example 146], the IC50 was 11 nM.
CCN(C(=O)CN1CCC(C)(C)C1=O)c1ccc2cc(-c3n[nH]c4c3CCC(C)(C)C4)[nH]c2c1 [Example 284] gave an IC50 of 1 nM.
Work on CC1(C)CCc2c(-c3cc4ccc(NC(=O)c5ccccc5)cc4[nH]3)n[nH]c2C1 [Example 27] yielded an IC50 of 327 nM.
COCC(=O)N(C)c1ccc2cc(-c3n[nH]c4c3CC(OC)CC4)[nH]c2c1 (stereo not drawn) [Example 369] showed an IC50 of 207 nM.
CN(C(=O)C(C)(C)COCc1ccccc1)c1ccc2cc(-c3n[nH]c4c3CCC(C)(C)C4)[nH]c2c1 [Example 75] was tested, and the IC50 was 34 nM.
Work on CC1(C)CCc2c(-c3cc4ccc(N(CCO)C(=O)C5CCOC5)cc4[nH]3)n[nH]c2C1 (stereo not drawn) [Example 238] yielded an IC50 of 2 nM.
Molecule CN(C)CCN(C(=O)CC1CCCCC1)c1ccc2cc(-c3n[nH]c4c3CCC(C)(C)C4)[nH]c2c1 [Example 219] has an IC50 of 4 nM.
For CN(C(=O)CN1CCOCC1)c1ccc2cc(-c3n[nH]c4c3CCC(C)(C)C4)[nH]c2c1 [Example 80], the IC50 was 3 nM.
In the case of CC1CCc2c(-c3cc4ccc(N(C)C(=O)c5ccccc5)cc4[nH]3)n[nH]c2C1 (stereo not drawn) [Example 357], the IC50 is reported as 29 nM.
CN(C(=O)c1ccccc1)c1ccc2cc(-c3n[nH]c4c3CC(O)CC4)[nH]c2c1 (stereo not drawn) [Example 367] gave an IC50 of 75 nM.
CC1(C)CCc2c(-c3cc4ccc(C(=O)Nc5ccccc5)cc4[nH]3)n[nH]c2C1 [Example 9] gave an IC50 of 334 nM.
For CN(C(=O)CN1CCCCC1=O)c1ccc2cc(-c3n[nH]c4c3CCC(C)(CO)C4)[nH]c2c1 (stereo not drawn) [Example 8, N-[2-(6-hydroxymethyl-6-methyl-4,5,6,7-tetrahydro-1H-indazol-3-yl)-1H-indol-6-yl]-N-methyl-2-(2-oxopiperidin-1-yl)acetamide], the IC50 was 3 nM.
CC(NC(=O)c1ccc2cc(-c3n[nH]c4c3CCC(C)(C)C4)[nH]c2c1)C(C)(C)C (stereo not drawn) [Example 13] showed an IC50 of 99 nM.
Work on CN1CCN(C(=O)c2ccc3cc(-c4n[nH]c5c4CCC(C)(C)C5)[nH]c3c2)CC1 [Example 14] yielded an IC50 of 40 nM.
With CC(N)C(=O)N(C)c1ccc2cc(-c3n[nH]c4c3CCC(C)(C)C4)[nH]c2c1 (stereo not drawn) [Example 377] the IC50 was 6 nM.
Work on CC1(C)CCc2c(-c3cc4cc(C(=O)NC(C)(C)C(=O)OC(C)(C)C)ccc4[nH]3)n[nH]c2C1 [Example 327] yielded an IC50 of 132 nM.
In the case of COCC(=O)N(C)CC(=O)N(C)c1ccc2cc(-c3n[nH]c4c3CCC(C)(C)C4)[nH]c2c1 [Example 180], the IC50 is reported as < 1 nM.
With CC1(C)CCc2c(-c3cc4cc(C(=O)N5CCCC5)ccc4[nH]3)n[nH]c2C1 [Example 332] the IC50 was 46 nM.
In the case of CO[C@H]1CC[C@@H](C(=O)N(C)CC(=O)N(C)c2ccc3cc(-c4n[nH]c5c4CCC(C)(C)C5)[nH]c3c2)CC1 [Example 194], the IC50 is reported as 2 nM.
For CN(C(=O)C1CCOC1)c1ccc2cc(-c3n[nH]c4c3CCC(C)(C)C4)[nH]c2c1 (stereo not drawn) [Example 66], the IC50 was 3 nM.
Molecule CC(=O)N1CCC[C@H]1C(=O)N(C)c1ccc2cc(-c3n[nH]c4c3CCC(C)(C)C4)[nH]c2c1 [Example 165] has an IC50 of 5 nM.
CC(CO)NC(=O)c1ccc2cc(-c3n[nH]c4c3CCC(C)(C)C4)[nH]c2c1 (stereo not drawn) [Example 20] showed an IC50 of 47 nM.
CN(Cc1ccccc1)C(=O)c1ccc2[nH]c(-c3n[nH]c4c3CCC(C)(C)C4)cc2c1 [Example 314] was tested, and the IC50 was 143 nM.
Molecule COCCN(C(=O)[C@H](C)N1CCOCC1)c1ccc2cc(-c3n[nH]c4c3CCC(C)(C)C4)[nH]c2c1 [Example 276] has an IC50 of 4 nM.
Work on CN(C(=O)CO)c1ccc2cc(-c3n[nH]c4c3CCC(C)(C)C4)[nH]c2c1 [Example 35] yielded an IC50 of 5 nM.
For CCC(=O)N(C)CC(=O)N(C)c1ccc2cc(-c3n[nH]c4c3CCC(C)(C)C4)[nH]c2c1 [Example 125], the IC50 was 1 nM.
Molecule CN(C(=O)c1ccccc1)c1ccc2cc(-c3n[nH]c4c3CCCC4)[nH]c2c1 [Example 350] has an IC50 of 62 nM.
